In brackets after ≈: the same amount, converted by molar mass. Entries after “also recorded” stand apart in the source; their conditions may differ. Where a SMILES comes first, the peptide text is derived from it. [ ]: non-standard residue; d: D form. The star is where a group is joined. AMC = Cc1cc(=O)oc2cc(N*)ccc12; pGlu = O=C1CC[C@@H](C(=O)O)N1; Phg = N[C@H](C(=O)O)c1ccccc1
What was measured:
[1] = target: T1, TRH-DE (Sus scrofa, UniProt A0A287AP33); assay: HPLC assay of peptide hydrolysis by TRH-DE (Glp production); type: biochemical, porcine; settings: for Rate of hydrolysis: peptide 1 mM, 37° C., Glp production by HPLC, mean±S.D.; for hydrolysis by TRH-DE (release of Glp): 1 mM peptide incubated with TRH-DE 18 h at 37° C., HPLC
T1 construct: The inventor purified TRH-DE from porcine brain according to purification procedures previously published by Dr. K. Bauer; from tissue; host or cells: porcine brain (TRH-DE); bovine kidney (DPP-IV, gift from Dr. C. H. Williams)
Experimental: (§1) The inventor purified TRH-DE from porcine brain according to purification procedures previously published by Dr. K. Bauer, (Max-Planck-Institut, Hannover, Germany) (1). TRH-DE was purified almost 20,000 fold. […] Dipeptidyl peptidase IV (DPP-IV) (EC 3.4.14.5), purified from bovine kidney (7.7 mg ml^−1, specific activity of 17.5 U mg^−1 with Gly-ProAMC as substrate), was obtained as a gilt from Dr. C. H. Williams (Queen's University Belfast, U.K). (DPP-IV was used as the coupling enzyme used in the fluorometric assays).
(§2) One unit (U) of enzyme activity was defined as that amount catalysing the formation of one μmol of product in one minute under the standard conditions employed. All incubations in the assays described below were carried out in 20 mM potassium phosphate buffer, pH 7.5, at 37° C.
Kinetic analysis of the peptide library using HPLC—The ability of each peptide in the library to act as a TRH-DE substrate was assessed using HPLC. As an initial screen, 1 mM peptide was incubated with 0.8 μg TRH-DE in a total volume of 1 ml for 18 h at 37° C. Control samples were included in which peptide (1 mM) or Glp (0.2 mM-0.8 mM) were incubated under identical conditions in the absence of TRH-DE. TRH-DE activity was terminated by the addition of TFA (0.15% v/v) and samples were then analysed using HPLC as described previously (24). Products resulting from TRH-DE hydrolysis could be separated on a C-18 reverse-phase column (Hypersil, UK) using a linear gradient of 0-70% acetonitrile in 0.08% (v/v) TFA. The concentration of Glp formed by the action of TRH-DE on the peptide library was measured by UV absorbance at 206 nm with a quantitative detection limit of 0.1 mM for a 40 μl injection volume, employing a signal to noise ratio of 10. Following the incubation of each peptide with TRH-DE, evidence of Glp in the sample was taken to indicate that the peptide was a TRH-DE substrate.
The rates of hydrolysis for each of those peptides identified as substrates were then compared by measuring Gip production using microassays with shorter incubation times. In these assays peptide (1 mM) was incubated at 37° C. in a total volume of 100 μl. 0.8-3.2 μg TRH-DE and incubations times of 5 min to 18 h were used routinely. Measurements were made in triplicate. The rate of TRH-OH hydrolysis was also measured by this method.

[2] = system: TRH-DE; settings: published observation (21); cited from earlier work
[3] = target: T1, TRH-DE; settings: From Ref. 23 (inventor's publication); cited from earlier work
[4] = physchem
[5] = system: Male Wistar rats; assay: behavioural effects (WDS, locomotion) after i.c.v. administration; type: in vivo, rat; settings: 5 μg alone, 30 min
Experimental: Methods: Behavioural studies were conducted using experimentally naïve Male Wistar rats (200-250 g) maintained in a temperature controlled (21° C.), artificially-lighted (12 hr light cycle) room with free access to food and water. Behavioural effects of […] following intra-cerebroventricular (i.c.v.) administration: Animals were implanted with guide cannula aimed at the lateral cerebral ventricles (AP-0.92 mm, ML-1.5 mm, DV-2.6 mm relative to Bregma, atlas of Paxinos & Watson) under halothane anaesthesia. One week following surgery placement of the cannulae was assessed by the ability of a microinjection of angiotensin II (200 ng in 1 μl) to induce drinking behaviour. […] They were then administered either vehicle (1 μl 0.9% saline) or […] (5 μg in 1 μl) followed 1 minute later by vehicle (1 μl 0.9% saline) or TRH (5 μg in 1 μl). One minute after the last i.c.v. injection animals were placed back into the perspex cage and their behaviour monitored by a computer automated tracking system for 30 minutes (Ethovision Pro, Noldus) to provide measures of locomotor activity. Animals were videotaped for subsequent blind analysis of WDS behaviour by a trained observer. A threshold dose of 5 μg TRH was chosen for i.c.v. administration so that if […] enhanced responses to TRH, this would be clearly visible. The statistical significance of differences between behavioural effects of treatments was determined using the Student's t-test or ANOVA, followed by a post-ANOVA test, as indicated. Radioligand binding data were analysed using non-linear curve fitting software (Prism, Graph Pad Software Inc.). IC50 values calculated from competition experiments were converted to Ki values using the Cheng-Prusoff (41) equation Ki=IC50/(1+L/Kd), where L=ligand concentration and Kd=the apparent dissociation constant for [^3[…].

[6] = target: T1, TRH-DE; assay: continuous coupled fluorometric TRH-DE assay (TRHAMC substrate, DPP-IV coupling enzyme); type: biochemical, porcine; settings: for reversibility and time dependence of inhibition: preincubation with TRH-DE up to 75 min at 37° C., Glp-Gln-ProNH2 400, Glp-Asn-ProNH2 160, Glp-Asn-ProAMC 1 μM; for inhibition at 1000 µM: peptide 1 mM
Experimental: as §1, §2
Kinetic analysis of peptides that are not hydrolysed by TRH-DE. A recently-developed continuous coupled fluorometric assay (23) was used to investigate the ability of those library peptides that were not hydrolysed by TRH-DE to inhibit TRHAMC degradation by TRH-DE. In this assay, TRHAMC is the substrate and dipeptidyl peptidase IV (DPP-IV) (EC 3.4.14.5) is the coupling enzyme. The reaction sequence is:
The reaction was monitored continuously by measuring the increase in AMC fluorescence. A linear progress curve with no discernible lag period was observed when the reaction was monitored over a period of 10 minutes. Nevertheless, data sampling was not commenced until 100 s from the start of the reaction to ensure measurements were taken after a steady state had been reached (see Ref. 23).
In a preliminary experiment, the peptides were screened for their ability to inhibit TRH-DE activity. The initial rate of TRHAMC hydrolysis by TRH-DE was measured by incubating 5 μM TRHAMC with 1.23 μg DPP-IV and 0.32 μg TRH-DE, both in the absence and presence of each library peptide (1 mM final concentration) under standard assay conditions (23). In each case the percentage inhibition (i%) was calculated using the equation i%=100(1-vi/vo), where vi and vo are the initial velocities in the presence and absence of peptide, respectively.
Since these peptides were poor inhibitors they were not examined further. The Ki values for the remainder of the peptides were determined by measuring their effects on TRHAMC degradation by TRH-DE using the continuous assay. Data were collected in duplicate at five different substrate concentrations and at least three different concentrations of each peptide.
Reversibility and time dependence of the inhibition produced by Glp-Gln-ProNH2, Glp-Asn-ProNH2 and Glp-Asn-ProAMC were examined by initially preincubating TRH-DE with each peptide at 37° C. for various periods up to 75 min. To investigate time dependence, the enzyme-peptide solution was subsequently added to the reaction mixture containing TRHAMC, DPP-IV, buffer and peptide, and TRH-DE activity was measured using the continuous assay. The final concentration of Glp-Gln-ProNH2, Glp-Asn-ProNH2 and Glp-Asn-ProAMC used was 400, 160 and 1 μM, respectively. […] TRH-DE activity was not affected by pre-incubation at 37° C.
Fluorescence measurements were made using a Perkin Elmer LS 50B Luminescence Spectrometer fitted with a thernostated cell holder. Wavelengths for excitation and emission were set at 370 nm and 440 nm, respectively, with slit widths of 10 nm and 5 nm, respectively.

[7] = target: TRH receptors in rat cortical membranes; assay: radioligand binding to ^3H-3MeHis-TRH-labelled receptors in rat cortex; settings: competition with 6-8 nM ^3H-3MeHis-TRH, Cheng-Prusoff
Experimental: Evaluation of the ability of TRH, Glp-Asn-ProNH2, and Glp-Asn-ProAMC to bind to ^3H-3MeHis-TRH-labelled receptors in rat cortex: Radioligand binding assays were conducted to investigate the possibility that the two TRH-DE inhibitors might exert their effects by acting independently at TRH receptors in the brain.
Cortex tissue from male Sprague-Dawley rats (250 g) was dissected out, weighed and homogenised in 30 volumes of ice-cold sodium phosphate buffer (0.02 M, pH 7.5). The homogenates were centrifuged at 30,000 g at 4° C. for 30 min. The supernatant was discarded and the pellet was resuspended at 100 mg wet wt/ml in buffer containing 177 μM bacitracin. […] Non-specific binding was defined in the presence of 10 μM TRH.
The statistical significance of differences between behavioural effects of treatments was determined using the Student's t-test or ANOVA, followed by a post-ANOVA test, as indicated. Radioligand binding data were analysed using non-linear curve fitting software (Prism, Graph Pad Software Inc.). IC50 values calculated from competition experiments were converted to Ki values using the Cheng-Prusoff (41) equation Ki=IC50/(1+L/Kd), where L=ligand concentration and Kd=the apparent dissociation constant for [^3H]-[3-MeHis]TRH.

[8] = non-linear regression, five TRHAMC concentrations and at least three peptide concentrations, mean±S.D. (n=3)
[9] = estimated from <20% inhibition at 1 mM peptide with the competitive inhibition relationship

T1 sequence (A0A287AP33 1-1066): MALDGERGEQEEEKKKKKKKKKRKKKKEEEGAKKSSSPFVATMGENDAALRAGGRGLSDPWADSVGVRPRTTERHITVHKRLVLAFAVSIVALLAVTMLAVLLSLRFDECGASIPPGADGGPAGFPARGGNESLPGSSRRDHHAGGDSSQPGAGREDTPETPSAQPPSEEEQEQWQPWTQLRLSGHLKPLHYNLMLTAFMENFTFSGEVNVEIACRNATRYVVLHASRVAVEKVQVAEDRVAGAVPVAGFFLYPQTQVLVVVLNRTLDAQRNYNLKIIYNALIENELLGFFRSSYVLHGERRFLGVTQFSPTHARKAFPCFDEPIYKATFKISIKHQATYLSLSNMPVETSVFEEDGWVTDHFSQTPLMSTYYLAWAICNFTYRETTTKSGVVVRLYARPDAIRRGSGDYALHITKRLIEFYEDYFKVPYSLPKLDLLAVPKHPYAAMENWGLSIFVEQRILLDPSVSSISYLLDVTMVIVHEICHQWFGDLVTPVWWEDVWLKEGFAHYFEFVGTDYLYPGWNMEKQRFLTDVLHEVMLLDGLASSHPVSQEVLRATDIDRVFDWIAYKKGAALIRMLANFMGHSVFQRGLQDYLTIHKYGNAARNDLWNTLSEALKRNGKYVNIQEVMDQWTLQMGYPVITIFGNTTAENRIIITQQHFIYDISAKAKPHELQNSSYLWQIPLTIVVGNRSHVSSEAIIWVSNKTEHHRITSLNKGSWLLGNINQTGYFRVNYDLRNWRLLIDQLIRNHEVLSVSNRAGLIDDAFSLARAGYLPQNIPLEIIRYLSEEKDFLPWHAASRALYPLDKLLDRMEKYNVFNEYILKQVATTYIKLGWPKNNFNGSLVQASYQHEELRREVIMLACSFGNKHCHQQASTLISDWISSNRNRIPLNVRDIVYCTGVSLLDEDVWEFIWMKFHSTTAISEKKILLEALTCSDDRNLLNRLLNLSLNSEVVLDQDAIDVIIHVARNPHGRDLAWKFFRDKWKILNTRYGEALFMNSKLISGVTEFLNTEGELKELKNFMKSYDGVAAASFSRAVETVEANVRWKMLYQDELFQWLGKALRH

| Compound | Ki [6, 8] | hydrolysis by TRH-DE (release of Glp) [1] | inhibition at 1000 µM ([6]; 5 μM TRHAMC substrate) | Ki [6, 9] | further results |
| --- | --- | --- | --- | --- | --- |
| NC(=O)[C@@H]1CCCN1C(=O)[C@H](Cc1ccccc1)NC(=O)[C@@H]1CCC(=O)N1 [Glp-Phe-ProNH2] ([pGlu]-Phe-Pro-NH2) |  |  |  |  | Rate of hydrolysis [1]: 1.56 ± 0.13 (5) U mg^−1; substrate for TRH-DE [2]: is also a substrate for TRH-DE |
| Glp-His-ProOH |  |  |  |  | Vmax ([1]; estimated from HPLC rates of hydrolysis using Vmax=vo{(Km+[S])/[S]}): 4.43 ± 0.24 (3) U mg^−1; Rate of hydrolysis [1]: 3.38 ± 0.18 (3) U mg^−1; Km [3]: 311 µM |
| Cc1cc(=O)oc2cc(NC(=O)[C@@H]3CCCN3C(=O)[C@H](CC(N)=O)NC(=O)[C@@H]3CCC(=O)N3)ccc12 [Glp-Asn-ProAMC, Glp-Asn-Pro-7amido-4-methyl coumarin] ([pGlu]-Asn-Pro-{AMC}) | 0.97 ± 0.08 µM |  |  |  | solubility [4]: 1000 µg/mL (≈ 2010 µM); number of WDS compared with vehicle [5]: Neither TRH nor Glp-Asn-ProAMC alone produced a significantly greater number of WDS than vehicle; Ki ([6]; calculated from percent inhibition measured in duplicate at 5 μM substrate): 0.41 µM; mode of inhibition of TRH-DE ([6]; continuous assay, Lineweaver-Burk plot): simple competitive inhibitors; inhibition at 1 µM ([6]; peptide 1 μM, 5 μM TRHAMC substrate): 50%; reversibility and time dependence of inhibition [6]: fully reversible and not time-dependent; pKi [7]: 4.32±0.24 |
| NC(=O)CC[C@H](NC(=O)[C@@H]1CCC(=O)N1)C(=O)N1CCC[C@H]1C(N)=O [Glp-Gln-ProNH2] ([pGlu]-Gln-Pro-NH2) | 69 ± 4.4 µM | not hydrolyzed at all; also recorded: No detectable Glp | 83% |  | reversibility and time dependence of inhibition [6]: fully reversible and not time-dependent |
| NC(=O)[C@@H]1CCCN1C(=O)[C@@H](NC(=O)[C@@H]1CCC(=O)N1)c1ccccc1 [Glp-Phg-ProNH2] ([pGlu]-[Phg]-Pro-NH2) | 356 ± 19 µM | No detectable Glp | 57% |  |  |
| NC(=O)[C@@H]1CCCN1C(=O)[C@H](CCC(=O)O)NC(=O)[C@@H]1CCC(=O)N1 [Glp-Glu-ProNH2] ([pGlu]-Glu-Pro-NH2) |  | No detectable Glp | 17% | > 1000 µM | substrate for TRH-DE [2]: is not |
| NC(=O)[C@@H]1CCCN1C(=O)[C@H](Cc1c[nH]c2ccccc12)NC(=O)[C@@H]1CCC(=O)N1 [Glp-Trp-ProNH2] ([pGlu]-Trp-Pro-NH2) | 232 ± 26 µM | No detectable Glp | 71% |  |  |
| NC(=O)[C@@H]1CCCN1C(=O)CNC(=O)[C@@H]1CCC(=O)N1 [Glp-Gly-ProNH2] ([pGlu]-Gly-Pro-NH2) |  | No detectable Glp | 8% | > 1000 µM |  |
| NC(=O)[C@@H]1CCCN1C(=O)[C@H](CC(=O)O)NC(=O)[C@@H]1CCC(=O)N1 [Glp-Asp-ProNH2] ([pGlu]-Asp-Pro-NH2) |  | No detectable Glp | 1% | > 1000 µM |  |
